Reference: PubChem BioAssay (NCI)
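Following 48 hours of exposure in 96-well plates, responses at five concentrations were used to interpolate endpoints linearly. TGI marks complete inhibition of growth.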

Experiments:
Assay in all cases: inhibition of tumour cell growth, NCI panel, 48 h
[1] = tested on: SF-268 CNS
[2] = tested on: HS 578T breast
[3] = tested on: SK-MEL-2 melanoma
[4] = tested on: CAKI-1 renal
[5] = tested on: NCI-H226 lung
[6] = tested on: M14 melanoma
[7] = tested on: SN12C renal
[8] = tested on: SW-620 colon
[9] = tested on: OVCAR-4 ovarian
[10] = tested on: PC-3 prostate
[11] = tested on: SK-MEL-28 melanoma
[12] = tested on: COLO 205 colon
[13] = tested on: RXF 393 renal
[14] = tested on: MDA-N
[15] = tested on: ACHN renal
[16] = tested on: HCC-2998 colon

Row | SMILES | TGI [1] [µM] | TGI [2] [µM] | TGI [3] [µM] | TGI [4] [µM] | TGI [5] [µM] | TGI [6] [µM] | TGI [7] [µM] | TGI [8] [µM] | TGI [9] [µM] | TGI [10] [µM] | TGI [11] [µM] | TGI [12] [µM] | TGI [13] [µM] | TGI [14] [µM] | TGI [15] [µM] | TGI [16] [µM]
1 | OCCCCn1cc(Cn2ncc3c(SCc4ccccc4)ncnc32)nn1 | > 100 | > 100 | > 100 | > 100 | > 100 | > 100 | > 100 | 90.9 | > 100 | > 100 | > 100 | 91.4 | > 100 | 39.2 | > 100 | > 100
2 | CCN(CC)c1nc(N(C)C)c2ccc(OC)cc2n1 | > 100 | > 100 | 36.5 | > 100 | 55.2 | 22.2 | 48.7 | 50 | > 100 | 54.8 | 32.4 | 21.6 | 34.7 | 22 | 59.6 | 26.9
3 | O=C1c2ccccc2C(=O)c2c1oc(=O)c1ccccc21 | 19.7 | 23.2 | 10.1 | 15.5 | 21.2 | 16.1 | 7.91 | > 25 | 3.56 | 19.2 | 17 | 24.7 | 9.62 | 5.7 | 11.1 | 6.96
4 | O/N=C1/CCCCCC1NO (stereo not drawn) | > 100 | > 100 | > 100 | > 100 | > 100 | > 100 | > 100 | > 100 | > 100 | > 100 | > 100 | > 100 | > 100 | > 100 | > 100 | > 100
5 | COc1ccc(/C=C(\C(=O)OCC(C)C)c2ccc(OC)c(OC)c2)cc1OC | > 100 | > 100 | > 100 | > 100 | > 100 | > 100 | > 100 | > 100 | > 100 | > 100 | > 100 | > 100 | > 100 | > 100 | > 100 | > 100
6 | CC(=O)N1CC[N+](C)(CCCCN2c3ccccc3Sc3cc(N=[N+]=[N-])ccc32)CC1 | > 100 | > 100 | > 100 | > 100 | > 100 | > 100 | > 100 | > 100 | > 100 | > 100 | > 100 | > 100 | > 100 | > 100 | > 100 | > 100
7 | BrCCC[P+](c1ccccc1)(c1ccccc1)c1ccccc1 | > 100 | > 79.6 | 82.2 | > 100 | > 100 | > 100 | > 100 | > 100 | > 100 | > 100 | > 100 | 4.16 | 7.55 | > 76.5 | > 100 | > 100
8 | O=C1C=CC[C@H](/C=C/C[C@@H](O)C[C@H](O)/C=C/c2ccccc2)O1 | 37.7 | 60.2 | 26.3 | 19.9 | 28.7 | 27.4 | 26.9 | 27.4 | 28.4 | 27.8 | 30.8 | 20.4 | 22.1 | 24.9 | 27.8 | 18.6
